{
  "source": "patent US20250333371A1",
  "about": "“COMPOUNDS” (PSYLO PTY LTD, priority 2022, published 2025)",
  "key": {"5-HT2A": {"target": "T1, 5-HT2A (Homo sapiens, UniProt P28223)", "T1 construct": "host or cells: HEK293", "T1 sequence (P28223 whole entry)": "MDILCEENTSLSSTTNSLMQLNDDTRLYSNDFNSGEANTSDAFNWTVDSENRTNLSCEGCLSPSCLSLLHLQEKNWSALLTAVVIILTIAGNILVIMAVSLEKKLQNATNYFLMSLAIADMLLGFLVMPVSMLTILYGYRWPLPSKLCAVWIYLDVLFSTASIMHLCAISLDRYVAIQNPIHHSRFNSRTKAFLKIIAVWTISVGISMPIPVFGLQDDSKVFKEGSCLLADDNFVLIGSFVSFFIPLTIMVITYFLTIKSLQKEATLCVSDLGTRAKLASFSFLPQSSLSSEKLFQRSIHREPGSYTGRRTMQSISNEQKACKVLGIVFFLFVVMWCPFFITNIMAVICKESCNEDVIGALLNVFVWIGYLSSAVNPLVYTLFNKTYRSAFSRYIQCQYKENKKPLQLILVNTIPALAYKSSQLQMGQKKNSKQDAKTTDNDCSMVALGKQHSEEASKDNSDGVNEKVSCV", "assay": "FLIPR Ca2+ flux functional assay, 5-HT2A receptor (stably transfected HEK293)", "format": "cell-based", "protocol": "(§1) Activity at 5-HT2A, 5-HT2B and 5-HT2C receptors was determined using a FLIPR Ca^2+ flux assay at WuXi AppTec Co. Ltd. (Hong Kong) Discovery Biology Unit according to their standard protocols. Briefly, stably transfected cells expressing the receptor of interest (HEK293 for 5-HT2A and 5-HT2C; CHO-K1 for 5-HT2B) were grown and plated in a 384 well plate and incubated at 37° C. and 5% CO2 overnight. A 250 mM stock solution of probenecid in FLIPR calcium assay buffer (10 mL) was freshly prepared and combined with a fluorescent dye (Fluo-4 Direct) to give a final assay concentration of 2.5 mM. Reference compounds were 4-fold serially diluted and the screening compounds were 3-fold serially diluted in 100% DMSO for 10 points using Agilent Bravo, and 750 nL was added to a 384 well compound plate using Echo along with 30 μL assay buffer. The fluorescent dye was then added to the assay plate along with assay buffer to a final volume of 40 μL. The cell plate was incubated for 50 min at 37° C. and 5% CO2 and placed into the FLIPR Tetra along with the compound plate. 10 μL of references and compounds were then transferred from the compound plate into the cell plate and the fluorescent signal was read."}, "5-HT2C": {"target": "T2, 5-HT2C (Homo sapiens, UniProt P28335)", "T2 construct": "host or cells: HEK293", "T2 sequence (P28335 33-458)": "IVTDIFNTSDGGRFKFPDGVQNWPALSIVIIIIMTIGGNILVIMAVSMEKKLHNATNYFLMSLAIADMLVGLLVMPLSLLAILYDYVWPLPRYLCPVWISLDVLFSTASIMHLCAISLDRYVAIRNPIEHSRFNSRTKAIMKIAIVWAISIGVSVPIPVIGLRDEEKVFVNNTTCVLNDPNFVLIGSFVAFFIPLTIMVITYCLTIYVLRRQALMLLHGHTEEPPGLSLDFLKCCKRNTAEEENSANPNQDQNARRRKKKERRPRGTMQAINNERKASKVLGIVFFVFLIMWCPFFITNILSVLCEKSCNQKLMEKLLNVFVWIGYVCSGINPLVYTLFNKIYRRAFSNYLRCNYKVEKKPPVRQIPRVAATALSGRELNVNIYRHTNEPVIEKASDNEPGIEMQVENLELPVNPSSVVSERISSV", "assay": "FLIPR Ca2+ flux functional assay, 5-HT2C receptor (stably transfected HEK293)", "format": "cell-based", "protocol": "as §1"}, "[1]": {"assay": "In vivo pharmacokinetics: plasma and brain exposure after IP administration", "set-up": "species or system male C57BL/6 mice", "settings": "for B:P Ratio Individual / Plasma Concentration (μM) Individual / concentration at 0.5 h / concentration at 0.083 h / concentration at 4 h / Kp at 0.083 h / Kp at 0.5 h / Kp at 4 h / Kp: 10 mg/kg; for Kp at 0.083 h / Kp at 0.5 h / Kp at 4 h / Kp: brain/plasma", "protocol": "The study was conducted using established procedures in accordance with the Australian Code of Practice for the Care and Use of Animals for Scientific Purposes, and the study protocols were reviewed and approved by the Monash Institute of Pharmaceutical Sciences Animal Ethics Committee.\nThe systemic exposure of selected examples was studied in non-fasted male C57BL/6 mice weighing between 22.3-26.2 g. Mice had access to food and water ad libitum throughout the pre- and post-dose sampling period.\nOn the day of dosing, the formulation of each compound was prepared by dissolving solid compound in phosphate buffer saline (50 mM) using vortexing, creating colourless solutions (pH 6.1-6.3) for each compound.\nCompounds were dosed to mice by IP injection (10 mL/kg dose volume via a 27G needle; n=9 mice per compound) and blood samples were collected at 5 and 30 min; 1, 2 and 4 h post-dose (n=3 mice per time point for each compound). A maximum of three blood samples were obtained from each mouse, with plasma samples being taken via submandibular bleed (approximately 120 μL). Once collected, blood samples were centrifuged immediately, supernatant plasma was removed, and stored at −80° C. until analysis by LCMS. In addition, at the 5 and 30 min and 4 h post-dose time points, the whole brain was rapidly removed from the carcass soon after the blood collection. The whole brains were blotted to remove excess blood, placed into pre-weighed polypropylene vials, and weighed. The brains were snap frozen in dry ice and subsequently stored frozen (−80° C.) until analysis.\nConcentrations of test compound in plasma and tissue samples were determined using an LCMS/MS method validated for linearity, accuracy, precision, matrix factor and recovery (Table 2).\nTest compound standard solutions were diluted from a concentrated stock solution (1 mg/mL in DMSO) using 50% acetonitrile in water (v/v) and a calibration curve was prepared in a matched matrix to the test samples.\nPlasma: The plasma calibration curve was prepared by spiking aliquots of blank mouse plasma (25 μL) with test compound standard solutions (5 μL) and internal standard solution (5 μL of diazepam, 5 μg/mL in 50% acetonitrile in water). Test plasma samples (25 μL) were thawed, mixed, and then spiked with internal standard solution (5 μL). Plasma protein precipitation was performed by addition of acetonitrile (3-fold volume ratio) and thorough vortex mixing. Samples were centrifuged (RCF=9391×g) for 3 minutes and the supernatant (90 μL) was collected for analysis.\nTissue: Pre-weighed tissue samples (brain) were homogenised using a glass rod in buffer containing an EDTA/potassium fluoride solution (0.1 M/4 mg/mL) as a stabilisation cocktail to minimise the potential for ex vivo degradation (3 mL cocktail/g tissue). The tissue homogenate was briefly centrifuged (RCF=79×g) for 10 seconds to separate the foam layer before transferring an aliquot of the tissue homogenate (200 μL) to a fresh Eppendorf tube for sample extraction. Calibration standards were prepared by spiking blank brain homogenate (200 μL) with the solution standards (10 μL) and the internal standard (10 μL). Study samples were similarly prepared, except that acetonitrile (10 μL) was added instead of solution standards to maintain the same volume. Protein precipitation was carried out by the addition of a 3-fold volume of acetonitrile, followed by vortex mixing and centrifugation (RCF=9391×g) for 3 min to recover the supernatant for analysis.\nReplicate analysis: Triplicate analytical replicate (ARs) samples were prepared similarly to the standards for each sample type at three concentrations (50, 500 and 2,000 ng/mL) and repeat injections of these ARs were included throughout the analytical run to assess assay performance. The extraction of the test compound from the standards and ARs were conducted as described above. […]"}, "[2]": {"settings": "agonist activity, Ca2+ flux, HEK293"}, "[3]": {"settings": "IP 10 mg/kg, 0.083 h, individual mice"}, "[4]": {"settings": "IP 10 mg/kg, 0.5 h, individual mice"}, "[5]": {"settings": "IP 10 mg/kg, 4 h, individual mice"}, "[6]": {"settings": "male, C57BL/6, mouse, plasma, IP 10 mg/kg"}},
  "note": "Where “and” joins values, the source holds several entries; their conditions need not be identical. Equal entries are not always repeated. Where two headings read alike, the source gives them in different places.",
  "data": [
    {"smiles": "COc1ccc2cccc(CCN(C)C(C)C)c2c1", "note": "[Example I-7, N-(2-(7-methoxynaphthalen-1-yl)ethyl)-N-methylpropan-2-amine]", "values": [
      {"measurement": "EC50", "setting": "5-HT2A", "result": 164, "unit": "nM"},
      {"measurement": "Emax", "setting": "5-HT2A; [2]", "result": 84, "unit": "%"},
      {"measurement": "EC50", "setting": "5-HT2C", "result": 603, "unit": "nM"},
      {"measurement": "Emax", "setting": "5-HT2C; [2]", "result": 56, "unit": "%"},
      {"measurement": "Brain AUC0-4 h", "setting": "[1]; IP 10 mg/kg", "result": 32.3, "unit": "µM·h"},
      {"measurement": "B:P Ratio Individual", "setting": "[1]; [3]", "result": "11 and 8.9"},
      {"measurement": "Plasma Concentration (μM) Individual", "setting": "[1]; [3]", "result": "0.896 µM and 1.00 µM"},
      {"measurement": "concentration at 0.5 h", "setting": "[1]; IP 10 mg/kg, 0.083 h, individual mice, read-out: Brain Parenchyma Concentration (μM) Individual", "result": "9.90 µM and 8.88 µM"},
      {"measurement": "B:P Ratio Individual", "setting": "[1]; [4]", "result": "18 and 26"},
      {"measurement": "Plasma Concentration (μM) Individual", "setting": "[1]; [4]", "result": "0.947 µM and 1.55 µM"},
      {"measurement": "concentration at 0.5 h", "setting": "[1]; IP 10 mg/kg, 0.5 h, individual mice, read-out: Brain Parenchyma Concentration (μM) Individual", "result": "17.9 µM and 17.5 µM and 40.1 µM"},
      {"measurement": "B:P Ratio Individual", "setting": "[1]; [5]", "result": "14 and 11"},
      {"measurement": "Plasma Concentration (μM) Individual", "setting": "[1]; [5]", "result": "0.0483 µM and 0.0571 µM"},
      {"measurement": "concentration at 0.5 h", "setting": "[1]; IP 10 mg/kg, 4 h, individual mice, read-out: Brain Parenchyma Concentration (μM) Individual", "result": "0.696 µM and 0.639 µM"},
      {"measurement": "concentration at 0.083 h", "setting": "[1]; male, C57BL/6, mouse, brain, ip, 0.083 h, individual mice, read-out: Brain Parenchyma Concentration (μM) Individual", "result": 6.41, "unit": "µM"},
      {"measurement": "concentration at 0.083 h", "setting": "[1]; male, C57BL/6, mouse, brain, ip, 0.083 h, n = 3, read-out: Brain Parenchyma Concentration (μM) Mean ± SD", "result": "8.4 ± 1.79", "unit": "µM"},
      {"measurement": "concentration at 0.5 h", "setting": "[1]; male, C57BL/6, mouse, brain, ip, 0.5 h, n = 3, read-out: Brain Parenchyma Concentration (μM) Mean ± SD", "result": "25.2 ± 13", "unit": "µM"},
      {"measurement": "concentration at 4 h", "setting": "[1]; male, C57BL/6, mouse, brain, ip, 4 h, individual mice, read-out: Brain Parenchyma Concentration (μM) Individual", "result": 1.14, "unit": "µM"},
      {"measurement": "concentration at 4 h", "setting": "[1]; male, C57BL/6, mouse, brain, ip, 4 h, n = 3, read-out: Brain Parenchyma Concentration (μM) Mean ± SD", "result": 0.0825, "unit": "µM"},
      {"measurement": "Kp at 0.083 h", "setting": "[1]; male, C57BL/6, mouse, ip, 0.083 h, individual mice, read-out: B:P Ratio Individual", "result": 9.2},
      {"measurement": "Kp at 0.083 h", "setting": "[1]; male, C57BL/6, mouse, ip, 0.083 h, n = 3, read-out: B:P Ratio Mean ± SD", "result": "9.7 ± 1.2"},
      {"measurement": "Kp at 0.5 h", "setting": "[1]; male, C57BL/6, mouse, ip, 0.5 h, individual mice, read-out: B:P Ratio Individual", "result": 17},
      {"measurement": "Kp at 0.5 h", "setting": "[1]; male, C57BL/6, mouse, ip, 0.5 h, n = 3, read-out: B:P Ratio Mean ± SD", "result": "21 ± 4.6"},
      {"measurement": "Kp at 4 h", "setting": "[1]; male, C57BL/6, mouse, ip, 4 h, individual mice, read-out: B:P Ratio Individual", "result": 16},
      {"measurement": "Kp at 4 h", "setting": "[1]; male, C57BL/6, mouse, ip, 4 h, n = 3, read-out: B:P Ratio Mean ± SD", "result": "14 ± 2.4"},
      {"measurement": "Kp", "setting": "[1]; male, C57BL/6, mouse, ip, (fu, brain * AUCbrain, 0-4 h)/(fu, plasma * AUCplasma, 0-4 h), read-out: (Unbound) time-averaged B:P", "result": 3.2},
      {"measurement": "Kp", "setting": "[1]; male, C57BL/6, mouse, ip, AUCbrain, 0-4 h/AUCplasma, 0-4 h, read-out: (Total) time-averaged B:P", "result": 18},
      {"measurement": "concentration at 0.083 h", "setting": "[1]; male, C57BL/6, mouse, plasma, ip, 0.083 h, individual mice, read-out: Plasma Concentration (μM) Individual", "result": 0.695, "unit": "µM"},
      {"measurement": "concentration at 0.083 h", "setting": "[1]; male, C57BL/6, mouse, plasma, ip, 0.083 h, n = 3, read-out: Plasma Concentration (μM) Mean ± SD", "result": "0.864 ± 0.155", "unit": "µM"},
      {"measurement": "concentration at 0.5 h", "setting": "[1]; male, C57BL/6, mouse, plasma, ip, 0.5 h, individual mice, read-out: Plasma Concentration (μM) Individual", "result": 1.03, "unit": "µM"},
      {"measurement": "concentration at 0.5 h", "setting": "[1]; male, C57BL/6, mouse, plasma, ip, 0.5 h, n = 3, read-out: Plasma Concentration (μM) Mean ± SD", "result": "1.18 ± 0.329", "unit": "µM"},
      {"measurement": "concentration at 4 h", "setting": "[1]; male, C57BL/6, mouse, plasma, ip, 4 h, individual mice, read-out: Plasma Concentration (μM) Individual", "result": 0.0723, "unit": "µM"},
      {"measurement": "concentration at 4 h", "setting": "[1]; male, C57BL/6, mouse, plasma, ip, 4 h, n = 3, read-out: Plasma Concentration (μM) Mean ± SD", "result": "0.0592 ± 0.0121", "unit": "µM"},
      {"measurement": "Cmax", "setting": "[1]; [6]", "result": 1180, "unit": "nM"},
      {"measurement": "Tmax", "setting": "[1]; [6]", "result": 30, "unit": "min"},
      {"measurement": "AUC(0-t)", "setting": "[1]; male, C57BL/6, mouse, plasma, IP 10 mg/kg, read-out: Plasma AUC0-4 h", "result": 1.82, "unit": "µM·h"},
      {"measurement": "AUC(0-inf)", "setting": "[1]; male, C57BL/6, mouse, plasma, IP 10 mg/kg, read-out: Plasma AUC0-inf", "result": 1.89, "unit": "µM·h"},
      {"measurement": "half-life", "setting": "[1]; male, C57BL/6, mouse, IP 10 mg/kg, plasma, read-out: Apparent t1/2 (converted)", "result": 46.2, "unit": "min"}
    ]}
  ]
}
